Reference: paper doi:10.1101/2022.01.05.475095v1 (biorxiv, 2022)

Key:
[1] = molecular target: T1, SARS-CoV-2 PLpro (Severe acute respiratory syndrome coronavirus 2, UniProt P0DTD1); test: biochemical; conditions: read-out: PLpro % inhibition at 10 µM
[2] = molecular target: T1, SARS-CoV-2 PLpro; test: fluorogenic Z-RLRGG-AMC cleavage assay; format: biochemical; conditions: read-out: % inhibition at 10 μM

Compound	inhibition at 10 µM [1]	inhibition at 10 µM [2]
CC1(C)OC2=C(C(=O)C(=O)c3ccccc32)C1n1cc(-c2ccccc2)nn1 (stereo not shown) [compound 159]	100 ± 1%	
CC1(C)OC2=C(C(=O)C(=O)c3ccccc32)C1n1cc(CNC2=CC(=O)c3ccccc3C2=O)nn1 (stereo not shown) [compound 189]	100%	
CC1(C)OC2=C(C(=O)C(=O)c3ccccc32)C1n1cc(CNC2=C(Br)C(=O)c3ccccc3C2=O)nn1 (stereo not shown) [compound 191]	93 ± 0.7%	
Cc1ccc(S(=O)(=O)n2cc(CN(C3=CC(=O)c4ccccc4C3=O)c3ccc(Br)cc3)nn2)cc1 [compound 314, 314]		55 ± 7%
CC(=O)c1ccc(N(Cc2cn(S(=O)(=O)c3ccc(C)cc3)nn2)C2=CC(=O)c3ccccc3C2=O)cc1 [compound 318]	9 ± 5%	
Cc1ccc(S(=O)(=O)n2cc(CNC3=CC(=O)c4ccccc4C3=O)nn2)cc1 [compound 319, 319]		69 ± 3%
Cc1ccc(S(=O)(=O)n2cc(CNC3=C(Cl)C(=O)c4ccccc4C3=O)nn2)cc1 [compound 320, 320]	31 ± 6%	
Cc1ccc(S(=O)(=O)n2cc(CNC3=C(Br)C(=O)c4ccccc4C3=O)nn2)cc1 [compound 321, 321]	17 ± 0.2%	
O=C1C(Sc2ccccc2)=C(Sc2ccccc2)C(=O)c2ccccc21 [compound 379]	0%	
O=C1C(Sc2ccc(Br)cc2)=C(Sc2ccc(Br)cc2)C(=O)c2ccccc21 [compound 380, 380]	12 ± 6%	
COc1ccc(SC2=C(Sc3ccc(OC)cc3)C(=O)c3ccccc3C2=O)cc1 [compound 382]	0%	
CC(=O)NC1=CC(=O)c2cccc(O)c2C1=O [compound 414, 414]	38 ± 2%	
CC(=O)NC1=CC(=O)c2c(cccc2[N+](=O)[O-])C1=O [compound 415, 415]		63 ± 9%
Cc1ccc(S(=O)(=O)c2cccc3c2C(=O)c2ccccc2C3=O)cc1 [compound 477, 477]	0%	
CC1(C)OC2=C(CC1Br)C(=O)C(=NNc1ccccc1)c1ccccc12 (stereo not shown) [compound 666, 666]	0%	
CC1(C)CC2=C(O1)c1ccccc1C(=NNc1ccccc1)C2=O [compound 673, 673]	4 ± 4%	
